How the values were obtained:
[1] = test system: phorbol ester receptor of HL-60 cells (protein kinase C); test: Competition for [3H]phorbol dibutyrate binding by HL-60 cells; set-up: species or system human; conditions: 12 nM [3H]phorbol dibutyrate, 1 h at 37°; read-out: 50% inhibition of [3H]phorbol dibutyrate binding
Procedure: Competitive binding assays were conducted as described by Goodwin and Weinberg (J. Clin. Invest, 70, 699-706, 1982 and Ebling et al (ibid.). Approximately 1×10^6 cells/ml were incubated with 12 nM [^3 H]phorbol dibutyrate (8.3 Ci/mmol) and varying concentrations of sphinganine (1:1 with BSA) for 1 h at 37°. The cells were recovered on Millipore filters, washed, and counted. The data were corrected for nonspecific binding by subtracting the cpm obtained in the presence of 300 nM PMA.

[2] = target: T1, NADPH-oxidase (Homo sapiens, UniProt P04839); test: NADPH-oxidase activity in isolated neutrophil membranes; format: biochemical
T1 construct: endogenous in cells
Procedure: Superoxide production was also measured spectrophotometrically in isolated membranes (see below) by the method of Curnutte et al (N. Eng. J. Med. 293, 628-632) also using superoxide dismutase inhibitable reduction of cytochrome c. Assays utilized paired cuvettes with the reference cuvette containing 30 μg/ml superoxide dismutase. Both cuvettes also contained 65 mM potassium phosphate pH 7.0, 125 mM sucrose, 81 μM cytochrome c, and 0.1 mg of membrane protein. The reaction was initiated with 200 μM (final) NADPH in both cuvettes. The treatments are as described in Table I. All spectrophotometric measurements were carried out using a Cary […] spectrophotometer.
Neutrophil membranes activated for superoxide production were prepared as described previously (Hohn, J. Clin. Invest. 55, 707-713, 1975). Neutrophils (10^8) were suspended in PBS-glucose and incubated in a shaking waterbath at 37° C. Cells were activated by the addition of 10 μg PMA/ml and allowed to incubate 5 min. The reaction was stopped by adding an equal volume of ice-cold PBS. The cells were centrifuged at 400×g for 4 min at 4° C. and resuspended in PBS-glucose containing 120 μM FAD. The cells were lysed by homogenization with a teflon-glass homogenizer. The homgenate was centrifuged at 250×g for 10 min. to remove unlysed cells. […]

[3] = test system: human neutrophils; test: Phagocytosis of opsonized latex particles by neutrophils; format: cell-based; conditions: 40 μM sphinganine, ± S.E.M.
Procedure: Latex particles were opsonized by incubating at 37° C. 1 ml of particles with 0.2 ml of human serum plus 1 ml Tris buffer, pH 8.5. […] The reaction was terminated by the addition of 0.4 ml of ice-cold buffer containing 1 mM EDTA. […] Cells are sedimented, while excess beads remain at the ficoll-saline interface. The number of latex beads internalized per cell was determined by microscopic examination.

[4] = test system: phorbol ester binding site (protein kinase C) of neutrophils; test: Cellular [3H]-phorbol dibutyrate binding in neutrophils; set-up: species or system human; conditions: 50 μM; 15 min
Procedure: Neutrophils (1×10^8 cells/ml) were preincubated with the indicated concentration of sphinganine, palmitic acid, or ceramide for five minutes prior to the addition of 50 nM (final concentration) of [^3 H]-phorbol dibutyrate (specific activity of 8.3 Ci/mMole). The cells were incubated an additional 15 min. in a shaking waterbath at 37° C. The incubation mixtures were filtered using an Amicon filtration manifold model VFM-III and washed 5 times with 5 mls of ice-cold PBS-glucose. The filters were counted using a Beckman LS7000 scintillation counter.

[5] = test system: neutrophils; test: Cell association of radiolabeled sphinganine with neutrophils; format: in vitro ADME, human; conditions: 3, 10, 30 μM plus albumin carrier, 2.5×10^6 cells, 5 min
Procedure: To determine how much inhibitor was actually becoming associated with the cells, radiolabeled sphinganine (3, 10, 30 μM) plus albumin carrier was incubated with neutrophils (2.5×10^6 cells) for 5 min (i.e. a time longer than that needed to achieve inhibition). After washing by centrifugation, the cell-associated radioactivity was measured. Approximately 20% of the added sphinganine became cell-associated. Therefore, because of partitioning between the albumin and the cells, the cellular concentration of sphinganine was considerably less than the total.

[6] = test system: Y-1 tumor cell line; test: ACTH stimulation of steroidogenesis in the Y-1 tumor cell line; format: cell-based; conditions: unpublished studies
[7] = test system: protein kinase C; test: [3H]PDBu binding to protein kinase C in mixed micelles; set-up: species or system rat; conditions: 16 and 20 mol % PS
Procedure: [^3 H]PDBu binding was performed as previously described (26).

[8] = target: protein kinase C; test: Mixed micellar protein kinase C activity assay for lysosphingolipids (Table VI); format: biochemical
Procedure: TABLE VI: Inhibition of protein kinase C activity and phorbol-dibutyrate binding by lysosphingolipids. […] The remaining two columns show the observed effects of the lysosphingolipids of protein kinase C activity and phorbol diester binding in vitro and in human platelets. Lysogangliosides were prepared from their parental gangliosides by hydrolysis in methanolic KOH esentially as described by Neuenhofer et al. in Bioch. 24, 525, 1985. During this preparation, with approximately 90-95% conversion, the N-acetate of N-acetylneuraminic acid is partially hydrolyzed. Fatty acids were partitioned into heptane after acidification of the methanolic reaction mixture. Galactosylsphingosine, glucosylsphingosine, and lactosylsphingosine were prepared as previously described for galactosylsphingosine (Radin, Lipids 9, 358, 1974) Sphingosylphosphorylcholine was prepared by hydrolysis in HCl-butanol (Kaller, Biochemische Zeitschrift 334, 451, 1961). The purity of the lyso derivatives (greater than 90%) was checked by thin layer chromatography (TLC) on silica gel H plates developed in chloroform/methanol/2N NH4 OH (65/35/9) and visualized by ninhydrin reaction for N-lyso compounds, by α-naphthol/sulfuric acid for both gangliosides and lysogangliosides,and by a phospholipid spray for sphingosylphosphorylcholine. Lysosphingolipids were quantitated by reaction of the amine group with trinitrobenzenesulfonate. Gangliosides and lysosphingolipids were also quantitated by reaction with anthrone. The lysosphingolipids were then studied for their effect on protein kinase C activity. Protein kinase C was purified to near homogeneity by the method of Wolf et al. (J. Biol. Chem. 260, 15718, 1985), and activity was measured using a mixed micellar assay (described herein). Lysosphingolipids were added directly in aqueous solution, and allowed to equilibrate with the Triton X-100 (0.3% w/v) mixed micelles containing 6 mol % phosphatidylserine and 2 mol % dioleoylglycerol. […] Phorbol-dibutyrate binding was measured in a mixed micellar assay. Lysosphingolipids inhibited phorbol-dibutyrate binding to protein kinase C in the presence of Triton X-100 mixed micelles containing 20 mol % phosphatidylserine. […] The difference is related to the higher concentration of phosphatidylserine used in the binding assay, as both activity and binding show a high cooperative dependence on phosphatidylserine, which modulates the inhibition by lysosphingolipids. Phorbol-dibutyrate binding to human platelets and 40 kDa phosphorylation in platelets were carried out as described above. Lysosphingolipids inhibited phorbol dibutyrate binding to human platelets at concentrations in the 10-50 μM range. Inhibition of 40 kDa phosphorylation occurred over the same concentration range.

IC50 [1] [µM] | Cytochrome c Reduction ([2]; 18 μM sphinganine, membranes from PMA-pretreated cells) [nmols/min/mg/protein] | inhibition of NADPH-dependent superoxide generation in isolated membranes ([2]; concentrations which inhibited the cellular response) | added sphinganine that became cell-associated [5] | SMILES | ingested latex beads per cell [3] [beads/cell] | displacement of [3H]-phorbol dibutyrate [4] [%] | effect on the ACTH-stimulated steroidogenic rate [6] | inhibition of phorbol-ester binding to mixed micelles [7] | Inhibition of Protein Kinase C, concentration giving 50% inhibition, (mol %) ([8]; 0.3% Triton X-100, 1 mol % = 43 μM) | IC50 ([8]; 0.3% Triton X-100 mixed micelles, 6 mol % phosphatidylserine, 2 mol % dioleoylglycerol, read-out: Inhibition of Protein Kinase C, concentration giving 50% inhibition) [µM]
~15 | 27 | No inhibition | Approximately 20% | CCCCCCCCCCCCCCC[C@@H](O)[C@@H](N)CO (relative stereo) [Sphinganine, erythro-dihydrosphingosine] | 7.2±0.8 | 60 | did not affect | – | – | –
– | – | – | – | CCCCCCCCCCCCC/C=C/[C@@H](O)[C@@H](N)CO [sphingosine] | – | – | – | inhibited | 1.9 | 80
